Values quoted from earlier work, collected in patent US12009562B2, “High solubility iron hexacyanides” (Lockheed Martin Energy, LLC, priority 2012, dated 2024).

## O.O.O.O.O.O.O.O.O.O.[C-]#N.[C-]#N.[C-]#N.[C-]#N.[C-]#N.[C-]#N.[Fe+2].[Na+].[Na+].[Na+].[Na+] [Na4Fe(CN)6.10H2O]
  concentration reported upon saturating 2 M NaOH: ~0.6 M
